{"source": "ChEMBL document CHEMBL1201862", "about": "“PubChem BioAssay data set” (2004)", "key": {"[1]": {"target": "T1, Microphthalmia-associated transcription factor (Homo sapiens, UniProt O75030)", "T1 sequence (O75030 whole entry)": "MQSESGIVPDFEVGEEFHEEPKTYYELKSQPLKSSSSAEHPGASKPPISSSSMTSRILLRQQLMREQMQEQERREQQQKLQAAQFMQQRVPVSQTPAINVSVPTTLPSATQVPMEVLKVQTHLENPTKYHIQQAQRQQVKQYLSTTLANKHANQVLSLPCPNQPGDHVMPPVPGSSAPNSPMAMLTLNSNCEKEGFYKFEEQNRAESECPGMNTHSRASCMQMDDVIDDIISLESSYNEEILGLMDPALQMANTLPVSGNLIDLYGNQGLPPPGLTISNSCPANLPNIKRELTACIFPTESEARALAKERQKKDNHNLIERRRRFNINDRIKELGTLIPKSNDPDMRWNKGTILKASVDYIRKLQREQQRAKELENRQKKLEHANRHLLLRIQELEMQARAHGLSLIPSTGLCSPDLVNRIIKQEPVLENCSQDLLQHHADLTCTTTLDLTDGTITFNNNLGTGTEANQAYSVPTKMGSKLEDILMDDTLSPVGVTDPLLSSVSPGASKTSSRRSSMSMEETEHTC", "experiment": "reducers of TRPM1 reporter luminescence, concentration series – cell-based, SK-MEL-5, cherry-picked, set 3, MITF inhibitor project, dose response (AID 493073)", "format": "functional"}, "A-375": {"system": "A-375", "experiment": "MITF: Counter assay: A375 proliferation Measured in Cell-Based System Using Plate Reader - 2084-03_Inhibitor_Dose_DryPowder_Activity. [Related pubchem assays (depositor defined):AID488944]", "format": "functional", "details": "Homo sapiens"}, "[2]": {"experiment": "reduction of Shn3 3'UTR-driven luciferase in osteoblasts – cell-based, Clone20 osteoblasts, firefly luciferase, cherry-picked, dose response (AID 624132)", "format": "functional"}, "[3]": {"experiment": "loss of viability in HepG2 cells – cell-based, CellTiter-Glo, cherry-picked, cytotoxicity control for Shn3 inhibitor project, dose response (AID 624134)", "format": "functional"}, "[4]": {"experiment": "non-specific 3'UTR reporter inhibition in Clone20-Shn3RL – cell-based, Renilla luciferase, cherry-picked, counter-screen for Shn3 inhibitor project, dose response (AID 624133)", "format": "functional"}, "[5]": {"experiment": "viability loss in Vero cells – cytotoxicity control for Vif-APOBEC3G degradation inhibitor project, dose response (AID 1117358)", "format": "functional", "details": "Vero"}, "[6]": {"target": "Ubiquitin carboxyl-terminal hydrolase BAP1 (Homo sapiens, UniProt Q92560)", "sequence (Q92560 whole entry)": "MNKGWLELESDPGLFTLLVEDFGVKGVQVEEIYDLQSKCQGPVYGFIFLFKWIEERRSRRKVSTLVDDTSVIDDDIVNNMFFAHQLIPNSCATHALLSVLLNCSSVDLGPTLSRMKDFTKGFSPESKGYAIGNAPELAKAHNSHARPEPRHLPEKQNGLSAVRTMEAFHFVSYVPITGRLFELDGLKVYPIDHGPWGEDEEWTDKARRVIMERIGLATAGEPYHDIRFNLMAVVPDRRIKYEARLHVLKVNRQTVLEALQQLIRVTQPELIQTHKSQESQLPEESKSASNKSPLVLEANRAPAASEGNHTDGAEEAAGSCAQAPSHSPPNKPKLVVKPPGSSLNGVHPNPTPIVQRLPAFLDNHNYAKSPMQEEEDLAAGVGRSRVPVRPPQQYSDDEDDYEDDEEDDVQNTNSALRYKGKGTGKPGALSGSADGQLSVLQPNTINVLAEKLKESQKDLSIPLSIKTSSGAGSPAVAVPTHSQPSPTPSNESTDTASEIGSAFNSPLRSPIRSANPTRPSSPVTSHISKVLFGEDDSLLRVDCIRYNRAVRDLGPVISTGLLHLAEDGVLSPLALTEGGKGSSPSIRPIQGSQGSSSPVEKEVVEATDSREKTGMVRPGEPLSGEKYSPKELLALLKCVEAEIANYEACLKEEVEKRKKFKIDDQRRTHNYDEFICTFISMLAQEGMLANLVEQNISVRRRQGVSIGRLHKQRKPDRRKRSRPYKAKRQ", "experiment": "inhibition of BAP1 ubiquitin hydrolase activity – biochemical, dose response (AID 714)", "format": "functional"}, "[7]": {"target": "Sphingosine 1-phosphate receptor 2 (Homo sapiens, UniProt O95136)", "sequence (O95136 whole entry)": "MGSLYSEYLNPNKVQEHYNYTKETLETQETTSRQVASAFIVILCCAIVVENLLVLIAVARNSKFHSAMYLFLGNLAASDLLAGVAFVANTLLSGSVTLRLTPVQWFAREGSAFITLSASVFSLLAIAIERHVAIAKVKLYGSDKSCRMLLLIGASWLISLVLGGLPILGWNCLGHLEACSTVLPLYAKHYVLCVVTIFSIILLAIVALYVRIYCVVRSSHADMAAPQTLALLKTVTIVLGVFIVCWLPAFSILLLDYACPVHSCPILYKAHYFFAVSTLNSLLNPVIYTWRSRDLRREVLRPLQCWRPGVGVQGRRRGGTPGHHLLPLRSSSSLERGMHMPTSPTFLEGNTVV", "experiment": "Dose Response Cell Based Assay for Agonists of the S1P2 Receptor. [Related pubchem assays: 729, 736, 843 ]", "format": "functional"}, "Transthyretin": {"target": "Transthyretin (Homo sapiens, UniProt P02766)", "experiment": "Luminescence-based cell-based high throughput dose response assay to identify activators of Transthyretin (TTR) transcription.", "format": "functional"}, "[8]": {"experiment": "viability of uninfected HEp-2 cells – cell-based, HTS, cytotoxicity control for RSV inhibitor project, dose response (AID 2410)", "format": "functional", "details": "human respiratory syncytial virus"}, "[9]": {"experiment": "M. tuberculosis growth inhibition, HTS (AID 449762)", "format": "functional"}, "[10]": {"experiment": "microbe, parasite or virus in culture", "format": "functional", "details": "Mycobacterium tuberculosis"}, "Paired box protein Pax-8": {"target": "Paired box protein Pax-8 (Homo sapiens, UniProt Q06710)", "sequence (Q06710 whole entry)": "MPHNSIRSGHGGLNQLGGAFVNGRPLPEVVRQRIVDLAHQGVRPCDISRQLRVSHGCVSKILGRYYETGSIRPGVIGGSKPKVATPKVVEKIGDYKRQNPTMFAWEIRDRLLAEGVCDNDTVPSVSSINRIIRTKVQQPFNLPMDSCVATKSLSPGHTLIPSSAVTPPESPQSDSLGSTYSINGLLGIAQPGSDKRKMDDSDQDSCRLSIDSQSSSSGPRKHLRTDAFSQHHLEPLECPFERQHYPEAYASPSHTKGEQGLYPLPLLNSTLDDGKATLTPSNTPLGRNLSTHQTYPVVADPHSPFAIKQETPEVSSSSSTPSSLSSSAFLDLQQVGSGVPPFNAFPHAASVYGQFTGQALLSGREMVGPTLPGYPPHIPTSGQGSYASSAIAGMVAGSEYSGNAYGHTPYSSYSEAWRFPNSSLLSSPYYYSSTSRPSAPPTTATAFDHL", "experiment": "PAX8 transcriptional activity inhibition in RMG-I – RMG-I cells, luciferase, cherry-pick, dose response (AID 687027);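 also: luciferase reporter driven by Pax8 target thyroperoxidase promoter measured by SteadyGlo luminescence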", "format": "functional, cell-based"}, "[11]": {"experiment": "inhibitors acting on PAX2 in cells – cell-based, plate reader, dry powder samples, selectivity assay for PAX8 inhibitor project, dose response (AID 743048);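 also: HEK293 cells carrying a WT1 promoter luciferase reporter driven by expressed Pax2; potency is for inhibition of Pax2 driven reporter signal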", "format": "functional"}, "[12]": {"experiment": "COV362 cell viability loss – plate reader, dry powder, SA12, cytotoxicity control for PAX8 inhibitor project, dose response (AID 743144)", "format": "functional, cell-based"}, "[13]": {"experiment": "OVCAR-3 cell viability loss – plate reader, dry powder samples, PAX8 inhibitor project, dose response (AID 743044)", "format": "functional, cell-based"}, "[14]": {"experiment": "PAX5 cellular inhibition readout – cell-based, plate reader, dry powder samples, selectivity assay for PAX8 inhibitor project, dose response (AID 743047);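 also: HEK293 cells carrying a Pax5 driven CD19 promoter luciferase reporter; potency of inhibitors that lower reporter luminescence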", "format": "functional"}, "[15]": {"experiment": "OVCAR4 cell viability loss – plate reader, dry powder, SA11, cytotoxicity control for PAX8 inhibitor project, dose response (AID 743150)", "format": "functional, cell-based", "details": "OVCAR-4"}, "[16]": {"experiment": "COV434 cell viability loss – plate reader, dry powder, SA7, cytotoxicity control for PAX8 inhibitor project, dose response (AID 743145)", "format": "functional, cell-based"}, "[17]": {"experiment": "OV-90 cell viability loss – plate reader, dry powder, SA8, PAX8 inhibitor project, dose response (AID 743149)", "format": "functional, cell-based"}, "[18]": {"experiment": "PAX8-dependent cell viability loss – plate reader, dry powder, dose response (AID 743049)", "format": "functional, cell-based"}, "[19]": {"experiment": "viability loss in THP-1 monocytes – THP-1 cells, cytotoxicity control for Vif-APOBEC3G degradation inhibitor project, dose response (AID 1117359)", "format": "functional", "details": "THP-1"}, "[20]": {"target": "T2, Aryl hydrocarbon receptor (Homo sapiens, UniProt P35869)", "T2 sequence (P35869 whole entry)": "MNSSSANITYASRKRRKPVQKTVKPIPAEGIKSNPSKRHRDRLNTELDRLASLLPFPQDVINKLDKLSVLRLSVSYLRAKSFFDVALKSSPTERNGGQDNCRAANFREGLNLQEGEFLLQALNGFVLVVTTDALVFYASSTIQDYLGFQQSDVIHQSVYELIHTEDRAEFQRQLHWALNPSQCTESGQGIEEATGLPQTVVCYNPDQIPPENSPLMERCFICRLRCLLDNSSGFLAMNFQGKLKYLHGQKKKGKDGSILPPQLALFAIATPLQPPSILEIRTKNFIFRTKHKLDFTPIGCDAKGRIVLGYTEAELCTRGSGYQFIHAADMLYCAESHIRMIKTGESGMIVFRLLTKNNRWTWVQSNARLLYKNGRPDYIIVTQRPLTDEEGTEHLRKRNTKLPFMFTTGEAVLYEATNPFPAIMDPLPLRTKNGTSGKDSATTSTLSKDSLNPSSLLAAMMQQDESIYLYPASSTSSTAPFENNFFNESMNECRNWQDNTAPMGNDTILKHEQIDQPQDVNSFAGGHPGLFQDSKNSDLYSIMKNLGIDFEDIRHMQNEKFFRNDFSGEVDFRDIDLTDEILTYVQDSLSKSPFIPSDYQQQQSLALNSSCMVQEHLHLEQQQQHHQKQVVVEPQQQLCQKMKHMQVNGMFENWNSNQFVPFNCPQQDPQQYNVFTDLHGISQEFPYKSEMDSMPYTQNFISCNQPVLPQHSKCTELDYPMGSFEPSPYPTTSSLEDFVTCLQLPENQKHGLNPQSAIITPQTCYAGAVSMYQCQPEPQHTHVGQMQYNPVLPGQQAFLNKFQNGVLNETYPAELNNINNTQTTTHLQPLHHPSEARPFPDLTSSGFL", "experiment": "Luminescence-based cell-based high throughput dose response assay for activators of the Aryl Hydrocarbon Receptor (AHR). [Related pubchem assays: 2796 (Primary screen (AHR activators in singlicate)), 2845 (Confirmation screen (AHR activators in triplicate)), 434939 (Counterscreen (PXR activators in triplicate)), 2804 (Summary (AHR activators))]", "format": "ADME"}, "Fibrinogen beta chain [21]": {"target": "T3, Fibrinogen beta chain (Homo sapiens, UniProt P02675)", "T3 sequence (P02675 whole entry, the tested form may be a part)": "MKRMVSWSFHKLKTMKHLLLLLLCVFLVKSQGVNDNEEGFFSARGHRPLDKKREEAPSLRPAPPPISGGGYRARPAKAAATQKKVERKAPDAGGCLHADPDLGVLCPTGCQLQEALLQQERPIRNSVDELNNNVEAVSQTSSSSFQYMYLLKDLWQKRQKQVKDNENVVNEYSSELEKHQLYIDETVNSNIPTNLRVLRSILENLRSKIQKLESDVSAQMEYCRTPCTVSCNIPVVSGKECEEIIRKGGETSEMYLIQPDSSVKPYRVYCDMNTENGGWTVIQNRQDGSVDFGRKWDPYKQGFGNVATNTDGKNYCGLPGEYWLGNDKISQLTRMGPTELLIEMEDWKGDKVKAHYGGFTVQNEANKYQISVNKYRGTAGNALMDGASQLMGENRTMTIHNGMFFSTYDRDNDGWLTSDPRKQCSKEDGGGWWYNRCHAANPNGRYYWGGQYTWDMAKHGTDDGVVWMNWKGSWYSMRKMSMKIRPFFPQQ", "experiment": "Fluorescence polarization-based biochemical high throughput dose response assay to identify inhibitors that disrupt the binding of a cyclic peptide (Tn6) to the fibrin proteolytic product D-Dimer and fragment E complex [DD(E )]."}, "Fibrinogen beta chain [22]": {"target": "T3, Fibrinogen beta chain", "experiment": "Fluorescence polarization-based biochemical high throughput dose response assay to identify inhibitors that disrupt the binding of a cyclic peptide (Tn7) to the fibrin proteolytic product D-Dimer and fragment E complex [DD(E )]."}, "[23]": {"experiment": "Plasmodium falciparum Dd2 Sybr green parasite growth Measured in Cell-Based and Microorganism Combination System Using Plate Reader - 2153-01_Inhibitor_Dose_DryPowder_Activity_Set3.", "format": "functional"}, "Phospholipase D2": {"target": "Phospholipase D2 (Homo sapiens, UniProt O14939)", "sequence (O14939 whole entry)": "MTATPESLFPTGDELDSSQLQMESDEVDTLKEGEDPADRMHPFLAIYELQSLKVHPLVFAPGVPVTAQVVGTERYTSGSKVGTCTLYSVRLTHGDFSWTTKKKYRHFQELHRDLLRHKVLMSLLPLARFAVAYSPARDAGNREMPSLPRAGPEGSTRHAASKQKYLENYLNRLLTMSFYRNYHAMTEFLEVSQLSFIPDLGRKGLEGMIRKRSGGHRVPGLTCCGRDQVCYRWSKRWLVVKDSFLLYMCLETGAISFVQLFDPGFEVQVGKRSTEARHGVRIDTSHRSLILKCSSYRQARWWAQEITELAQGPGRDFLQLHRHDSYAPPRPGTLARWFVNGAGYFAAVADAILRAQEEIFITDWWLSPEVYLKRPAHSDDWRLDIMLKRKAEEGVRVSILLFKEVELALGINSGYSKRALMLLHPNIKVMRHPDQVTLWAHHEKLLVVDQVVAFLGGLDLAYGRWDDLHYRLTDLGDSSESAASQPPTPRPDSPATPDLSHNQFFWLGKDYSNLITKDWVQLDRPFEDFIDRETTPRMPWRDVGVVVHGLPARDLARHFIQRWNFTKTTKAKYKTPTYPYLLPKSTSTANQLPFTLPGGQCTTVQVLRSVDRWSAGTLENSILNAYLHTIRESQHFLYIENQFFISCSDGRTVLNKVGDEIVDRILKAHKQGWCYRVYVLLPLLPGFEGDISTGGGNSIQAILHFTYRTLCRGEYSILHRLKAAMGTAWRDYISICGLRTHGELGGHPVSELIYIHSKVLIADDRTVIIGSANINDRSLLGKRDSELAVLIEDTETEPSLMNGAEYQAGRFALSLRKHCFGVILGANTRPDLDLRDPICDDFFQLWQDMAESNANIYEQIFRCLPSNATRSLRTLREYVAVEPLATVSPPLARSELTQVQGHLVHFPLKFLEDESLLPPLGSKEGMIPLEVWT", "experiment": "PLD2 Cellular Concentration Response Study.", "format": "functional"}, "Phospholipase D1": {"target": "Phospholipase D1 (Homo sapiens, UniProt Q13393)", "sequence (Q13393 whole entry)": "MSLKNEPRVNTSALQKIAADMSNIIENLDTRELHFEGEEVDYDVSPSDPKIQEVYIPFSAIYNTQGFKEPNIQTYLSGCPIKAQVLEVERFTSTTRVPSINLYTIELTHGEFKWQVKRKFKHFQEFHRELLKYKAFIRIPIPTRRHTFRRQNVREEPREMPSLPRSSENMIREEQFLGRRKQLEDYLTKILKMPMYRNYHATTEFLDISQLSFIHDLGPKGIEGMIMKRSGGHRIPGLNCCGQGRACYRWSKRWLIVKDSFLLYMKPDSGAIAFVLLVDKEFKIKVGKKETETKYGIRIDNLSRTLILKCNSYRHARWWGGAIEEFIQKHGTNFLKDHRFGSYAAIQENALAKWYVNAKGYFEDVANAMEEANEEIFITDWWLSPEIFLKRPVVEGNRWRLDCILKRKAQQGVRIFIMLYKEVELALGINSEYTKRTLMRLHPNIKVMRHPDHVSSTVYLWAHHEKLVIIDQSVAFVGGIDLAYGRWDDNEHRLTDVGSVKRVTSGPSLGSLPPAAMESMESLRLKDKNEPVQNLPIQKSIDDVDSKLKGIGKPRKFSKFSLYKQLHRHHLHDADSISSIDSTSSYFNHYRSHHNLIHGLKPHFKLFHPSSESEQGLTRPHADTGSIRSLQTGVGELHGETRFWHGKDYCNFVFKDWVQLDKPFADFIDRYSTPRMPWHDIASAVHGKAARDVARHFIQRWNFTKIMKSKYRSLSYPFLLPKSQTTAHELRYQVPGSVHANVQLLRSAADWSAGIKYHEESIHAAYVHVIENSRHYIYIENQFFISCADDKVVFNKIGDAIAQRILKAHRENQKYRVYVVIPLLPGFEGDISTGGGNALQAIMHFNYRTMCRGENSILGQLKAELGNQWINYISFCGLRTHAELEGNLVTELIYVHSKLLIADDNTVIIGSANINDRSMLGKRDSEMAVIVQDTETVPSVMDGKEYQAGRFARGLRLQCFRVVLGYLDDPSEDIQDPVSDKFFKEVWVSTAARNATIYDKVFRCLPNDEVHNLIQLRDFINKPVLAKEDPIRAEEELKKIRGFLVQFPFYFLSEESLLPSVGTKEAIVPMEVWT", "experiment": "PLD1 Cellular Concentration Response Study.", "format": "functional"}}, "note": "Activity calls are given as the source filed them.", "data": [{"molecule": "COc1cccc(CNCCc2c[nH]c3ccccc23)c1OCc1ccccc1", "values": [{"measurement": "AC50", "setting": "[1]", "result": "14.4 µM (active)"}, {"measurement": "AC50", "setting": "A-375", "result": "36.2 µM (active)"}, {"measurement": "AC50", "setting": "[2]", "result": "4.09 µM (active)"}, {"measurement": "AC50", "setting": "[3]", "result": "11.8 µM (active)"}, {"measurement": "AC50", "setting": "[4]", "result": "9.39 µM (active)"}, {"measurement": "CC50", "setting": "[5]", "result": "> 40 µM (active)"}]}, {"molecule": "O=c1[nH]c(SCc2ccc(F)cc2)nc2c1cnn2-c1ccc(F)cc1", "values": [{"measurement": "IC50", "setting": "[6]", "result": "> 50 µM (not active)"}]}, {"molecule": "CC(C)CCNC(=O)c1c(N)n(Cc2ccc3c(c2)OCO3)c2nc3ccccc3nc12", "values": [{"measurement": "EC50", "setting": "[7]", "result": "1.69 µM (active)"}]}, {"molecule": "N=c1ccn(CC(=O)NC(N)=O)c2ccccc12", "values": [{"measurement": "EC50", "setting": "Transthyretin", "result": "> 167 µM (inactive)"}]}, {"molecule": "COC(=O)C1=C(C)NC(=O)/C1=C\\c1cc(C)n(-c2cccc(C)c2)c1C", "values": [{"measurement": "CC50", "setting": "[8]", "result": "16 µM (active)"}, {"measurement": "IC50", "setting": "[9]", "result": "> 100 µM (active)"}, {"measurement": "CC50", "setting": "[10]", "result": "> 40 µM (active)"}]}, {"molecule": "CC(C)CC1NC(=S)N(Cc2ccccc2)C1=O", "note": "(stereo not drawn)", "values": [{"measurement": "AC50", "setting": "Paired box protein Pax-8", "result": "6.46 µM (active)"}, {"measurement": "AC50", "setting": "[11]", "result": "29.2 µM (active)"}, {"measurement": "AC50", "setting": "[12]", "result": "33.9 µM (active)"}, {"measurement": "AC50", "setting": "[13]", "result": "94 µM (active)"}, {"measurement": "AC50", "setting": "[14]", "result": "43 µM (active)"}, {"measurement": "AC50", "setting": "[15]", "result": "15.9 µM (active)"}, {"measurement": "AC50", "setting": "[16]", "result": "18.8 µM (active)"}, {"measurement": "AC50", "setting": "[17]", "result": "21.4 µM (active)"}, {"measurement": "AC50", "setting": "[18]", "result": "46.8 µM (active)"}]}, {"molecule": "CCCCCC(=O)N1C[C@@H](n2cc(C3CC3)nn2)[C@H](O)C[C@@H]1c1ccc(C)cc1", "values": [{"measurement": "CC50", "setting": "[19]", "result": "> 40 µM (active)"}]}, {"molecule": "C#CCn1cc(/C=N/NC(=O)c2cc3ccccc3o2)c2ccccc21", "values": [{"measurement": "EC50", "setting": "[20]", "result": "0.544 µM (active)"}, {"measurement": "IC50", "setting": "Fibrinogen beta chain [21]", "result": "> 83.3 µM (inactive)"}, {"measurement": "IC50", "setting": "Fibrinogen beta chain [22]", "result": "> 83.3 µM (inactive)"}]}, {"molecule": "Cc1noc(C)c1NC(=O)Nc1ccc2c(c1)C(=O)N([C@@H](C)CN(C)C)C[C@@H](C)[C@H](CN(C)S(=O)(=O)c1ccc(F)cc1)OCCCC[C@H](C)O2", "values": [{"measurement": "AC50", "setting": "[23]", "result": "0.0289 µM (active)"}]}, {"molecule": "O=C(NCCN1CCC2(CC1)C(=O)NCN2C(=O)C1CCC1)c1ccc2ccccc2c1", "values": [{"measurement": "IC50", "setting": "Phospholipase D2", "result": "0.32 µM (active)"}, {"measurement": "IC50", "setting": "Phospholipase D1", "result": "4 µM (active)"}]}]}
